Test [1] has as its system MES-SA uterine sarcoma cells. Kind of test: Cell growth inhibition assay (methylene blue-based microculture), MES-SA. Further details: species or system human. As to conditions: MDR negative parental cell line, 4 days incubation, compound in the crystalline form described. As for the experimental part:
(§1) The anti-cancer activity of the compounds described above, in the crystalline forms described, was determined using cell growth inhibition assays as described in Liu, J. et al. Anticancer Research, 27:1509-1511 (2007). The activity data in terms of IC50 nM is described below in Table 9. MES-SA and MES-SA/Dx5-Rx1 uterine sarcoma, were obtained from the American Type Culture Collection and grown in the recommended conditions.
(§2) Cell Growth Inhibition Assays. Cells were seeded at 7.5×10^3 cells/well in 96-well plates in the recommended medium supplemented with 10% FBS and penicillin, streptomycin and L-glutamine. […] The cell growth was determined using modifications (see Finlay G. J., et al. “A semiautomated microculture method for investigating growth inhibitory effects of cytotoxic compounds on exponentially growing carcinoma cells.” Anal Biochem 139: 272-277, 1984) of a methylene blue-based microculture assay (See Towle M. J., et al. “In vitro and in vivo anticancer activities of synthetic macrocyclic ketone analogues of halichondrin B.” Cancer Res 61: 1013-1021, 2001). […] The plates were read at A600-A405.
(§3) Susceptibility of Compound to P-Glycoprotein-Mediated Multidrug Resistance (MDR). […] Both cell lines were seeded at 7.5×10^3 cells/well in McCoy's 5A supplemented with 10% FBS and penicillin, streptomycin and L-glutamine and cell growth was measured as above. […]

Test [2] concerns MES-SA/Dx5-Rx1 uterine sarcoma cells (expresses P-Glycoprotein at high levels). Kind of test: Cell growth inhibition assay (methylene blue-based microculture), Dx5-Rx1. Further details: species or system human. Conditions: Dx5-Rx1, doxorubicin-selected P-glycoprotein expressing subline; 4 days incubation; compound in the crystalline form described. As for the experimental part: as §1, §2, §3

The subject of test [3] is P-Glycoprotein-mediated MDR, Dx5-Rx1 versus MES-SA cells. Kind of test: Susceptibility of compound to P-glycoprotein-mediated multidrug resistance (fold resistance). Conditions: fold resistance: ratio of the IC50 values in resistant and parental cell lines. Format: cell-based, human. The method, then:
Susceptibility of Compound to P-Glycoprotein-Mediated Multidrug Resistance (MDR). A pair of human uterine sarcoma cell lines was used: MES-SA, the MDR negative parental cell line, and Dx5-Rx1, a cell line derived from MES-SA after long term of exposure to doxorubicin. This subline expresses P-Glycoprotein at high levels. Both cell lines were seeded at 7.5×10^3 cells/well in McCoy's 5A supplemented with 10% FBS and penicillin, streptomycin and L-glutamine and cell growth was measured as above. The ratio of the IC50 values obtained in the parental and resistant cell lines was termed fold resistance and provided an indication of compound susceptibility to P-glycoprotein-mediated MDR against the two cell lines were compared with each other.

Two compounds from patent US9206194B2, “Halichondrin B analogs” (Eisai R&D Management Co., Ltd., priority 2008, dated 2015) can be followed below.

SMILES strings stand for the structures.

For orientation: IC50 means the concentration that gives 50% inhibition. Regarding `C=C1C[C@@H]2CC[C@@]34C[C@H]5O[C@H]6[C@@H](O3)[C@H]3O[C@H](CC[C@@H]3O[C@H]6[C@H]5O4)CC(=O)C[C@@H]3[C@@H](OC)[C@@H](C[C@H](O)CO)O[C@H]3C[C@H]3O[C@@H](CC[C@@H]1O2)C[C@@H](C)C3=C` [ER-076349 monohydrate], the IC50 worked out at 0.03 nM in test [1] and 6.5 nM in test [2]. In test [3], the “Ratio of DxR-Rx1/MES-SA” value worked out at 217.
Take `C=C1C[C@@H]2CC[C@@]34C[C@H]5O[C@H]6[C@@H](O3)[C@H]3O[C@H](CC[C@@H]3O[C@H]6[C@H]5O4)CC(=O)C[C@@H]3[C@@H](OC)[C@@H](C[C@H](O)CN)O[C@H]3C[C@H]3O[C@H](CC[C@@H]1O2)C[C@@H](C)C3=C` [ER-820057 (epi-C23 amine)]: the IC50 in test [1] stood at 3.3 nM; in test [2] it was 1000 nM. In addition, the “Ratio of DxR-Rx1/MES-SA” value in test [3] is listed as 303.
